“Also recorded” adds a separate entry of the source. Read-outs that look alike come from different tables or passages of the source.
How the values were obtained:
human RBCs = test: Hemolytic activity on human RBCs; format: cell-based; conditions: 0.5-20 µM, 10% (v/v) RBC suspension, 1 h, absorbance at 415 nm
Method: Effect of compounds on human RBCs was checked with the help of spectrophotometry by measuring the lysis of human red blood cells (hRBCs). Compounds were tested at 0.5, 1, 5, 10 and 20 μM concentrations with 10% (v/v) RBCs suspension for 1 h and observed the percentage of RBCs lysis by compounds 7, 16, 17, 18 and 1.
Human RBCs were from Rotary Blood Bank, Tughlakabad Institutional Area, New Delhi, India. Effect of compounds on RBCs was checked by hemolytic assay. In brief, RBCs suspension with 10% (v/v) washed with 1 × Phosphate-buffered saline (PBS) (pH 7.4) and again resuspended in 1 × PBS. RBCs suspension was incubated with compounds 7, 16, 17, 18 and 1 at different concentrations (0.5, 1, 5, 10 and 20 μM) for 1 h at 37 °C. Samples were centrifuged and supernatant was taken for absorbance at 415 nm. Triton X-100 with 1% (v/v) was used as a positive control. Experiment was done in triplicate.

[1] = test system: chloroquine resistant strain PfRKL-9; test: SYBR green I based fluorescence growth inhibition assay, PfRKL-9; format: cell-based; conditions: Plasmodium falciparum, synchronized late trophozoite parasites, triplicate, mean ± SD, read-out: IC50 (µM) against PfRKL-9
Method: (§1) The percent growth inhibition of the parasites was evaluated by SYBR Green assay.
(§2) Pf3D7 and PfRKL-9 were cultured by following procedure reported by Trager and Jensen[33]. […] In order to examine the morphological changes in the parasite, a blood film must be prepared. A thin blood film was air-dried, fixed with methanol, and allowed to dry before staining. […] Light microscopy analysis was carried out to evaluate the inhibitory effect of compounds at different concentrations against Pf3D7 and PfRKL-9.
(§3) SYBR green I based fluorescence assay was performed to measure the growth inhibition effect of the 26 compounds and further dose dependent assay against Pf3D7, and PfRKL-9 (Indian field strain, source- NIMR, New Delhi, India) was carried out at different concentrations. In brief, Pf3D7 and PfRKL-9 parasitized erythrocytes (trophozoite stage with 1% parasitemia) were diluted with noninfected erythrocytes at a constant 2% hematocrit in culture medium. Parasitized erythrocytes were treated with different concentrations of compounds ranging from 1 µM to 10 µM, whereas DMSO worked as a control. Triplicate wells of parasitized erythrocytes treated with compounds were seeded in 96 well microtiter plate following incubation at 37 °C for one cycle of parasite growth. […] Growth inhibition (%) was calculated as follows: % Inhibition = [1 − % Parasitemia (Treatment)/% Parasitemia (Control)] *100. Data were expressed as mean ± SD.

[2] = test system: Pf3D7 chloroquine-sensitive strain; test: SYBR green I based fluorescence growth inhibition assay, Pf3D7; format: cell-based, Plasmodium falciparum; conditions: for IC50 / inhibition at 1 µM: Plasmodium falciparum; for IC50: read-out: IC50 (µM) against Pf3D7; for growth inhibition against Pf3D7 (in words): screen at 1 µM and 10 µM, vs untreated control (Fig. S1); for inhibition at 1 µM: asynchronous culture, one intraerythrocytic cycle (Fig. S1), read-out: inhibition against Pf3D7 at 1 µM
Method: Growth of one intraerythrocytic cycle of Pf was monitored after treated with compounds whereas untreated parasites were considered as control.
as §1, §2
as §3, with “In brief, Pf3D7 and PfRKL-9 parasitized erythrocytes (trophozoite stage with 1% parasitemia) were diluted with noninfected erythrocytes at a constant 2% hematocrit in culture medium.” left out

[3] = test system: embryonic kidney cell lines, HEK-293; conditions: human, 48 h
Method: Cytotoxicity against human embryonic kidney cell line (ATCC) was determined using MTT dye[35]. In order to measuring the cytotoxicity of the compounds we used MTT dye to detect live/dead cells. […] cells were stored at 37 °C, 5% CO2 in […] sterile culture flasks (Corning) in complete Dulbecco's Modified Eagle Medium (DMEM) culture medium (a) supplemented with 5% Fetal Bovine Serum (FBS), gentamicin ([…]), with changing the medium thrice a week. The monolayers were washed, counted, diluted in complete medium, distributed in 96-well microtiter plates (5000 cells/well), followed by incubation for another 24 h at 37 °C. The test compounds and DMSO were added in triplicate. After a 48 h incubation at 37 °C, the supernatant was removed and 100 µL of MTT solution in complete DMEM was added to each well, followed by 2 h incubation at 37 °C. The culture plates were read in a spectrophotometer (Tecan infinite M200, nanoquant, UK) with a 490 nm filter, and the cytotoxic concentrations were determined based on a dose response curve.

[4] = test system: Mitochondrial membrane potential of the malaria parasites; test: JC-1 mitochondrial membrane potential assay; format: cell-based, Plasmodium falciparum; conditions: parasites treated with IC50 concentration for 3 h; untreated control 7.04 ± 1.30
Description: Mitochondrial membrane potential is a marker of mitochondria’s functional status. Modification in mitochondrial membrane potential leading to mitochondrial dysfunction triggers cell death[25],[26]. Mitochondrial dysfunction was detected by using membrane permeant JC-1 dye. JC-1 is a cationic probe, due to electronegative environment inside the functionally active mitochondria with high Δψm, it aggregates in energised mitochondria and gives red color fluorescence at 590 nm, but in case of low Δψm (depolarized state), JC-1 remain in monomeric form and gives green color fluorescence at […]. Decreased ratio of red/green fluorescence intensity of compound treated sample as compared to untreated control indicates depolarized mitochondrial membrane[27],[28]. The damage to the parasite's mitochondria after treatment with compounds 7, 16, 17, 18 and 1 was measured according to the method reported previously. Because of lipophilic nature of the JC-1, it is cell permeable and emits a green signal (525 nm) in the cytoplasm, but the high transmembrane potential of functional mitochondria causes it to aggregate and emit a red signal (590 nm). […]. Mitochondrial membrane potential of the malaria parasites was determined by using MitoProbe™ JC-1 assay as described previously. In brief, trophozoite stage parasites (10–12% parasitemia) were treated with IC50 concentration of compounds 7, 16, 17, 18 and 1 for 3 h at 37 °C in the CO2 incubator. Samples were washed with 1 × PBS by centrifugation at 500 × g for 2 min at RT. Freshly prepared JC-1 dye was added to each sample with working concentration of 5 µg/mL. Incubation was done for 30 min at 37 °C in a CO2 incubator. Cells were washed twice with 1 × PBS. Spectrofluorometer was used to observe mitochondrial membrane potential by measuring fluoroscence intensities from the parasite lysate at wavelength of excitation (520 nm) and emission (590 nm) respectively. In vivo cell imaging was done with the help of Olympus fluoview 3000 confocal microscopy. Live cell imaging was observed under a 100X objective (oil immersion) and band pass filter at 355–460 nm. Experiments were repeated thrice and only representative figures are shown (Fig. 6).

[5] = chloroquine-sensitive strain, synchronized late trophozoite parasites, SYBR Green, triplicate, mean ± SD

Compound	growth inhibition against Pf3D7 (in words) [2]	inhibition at 1 µM [2]	other results
COc1ccc(C(OC[C@@H]2CN(C[C@H]3O[C@@H](n4cc(C)c(=O)[nH]c4=O)C[C@@H]3O)C[C@H](n3cc(C)c(=O)[nH]c3=O)O2)(c2ccccc2)c2ccc(OC)cc2)cc1 [Compound 3]	remarkable actvity; also recorded: good/excellent inhibitory effect	–	lysis of human RBCs (in words) (human RBCs): showed cytotoxicity towards human RBCs; also recorded: showed toxicity; IC50 [1]: 4.5 ± 2.5 µM; IC50 [2, 5]: 1.19 ± 1.1 µM
CCN(CC)CCCC(C)Nc1ccnc2cc(Cl)ccc12 (stereo not shown) [chloroquine, reference compound]	–	–	IC50 [2]: 0.025 µM
CC(=O)OC[C@H]1O[C@@H](SC[C@@H]2[C@@H](O[Si](C)(C)C(C)(C)C)[C@H](n3ccc(=O)[nH]c3=O)O[C@@H]2CO[Si](C)(C)C(C)(C)C)[C@H](OC(C)=O)[C@@H](OC(C)=O)[C@H]1OC(C)=O [Compound 16, 1-[3’-Deoxy-3’-C-(-2,3,4,6-tetra-O-acetyl-β-D-galactopyranosyl-sulfanylmethyl)-2’,5’-di-O-(tert-butyldimethylsilyl)-β-D-xylofuranosyl]-uracil]	significant growth inhibition in a dose dependent manner	–	lysis of human RBCs (in words) (human RBCs): no significant lysis; Cell survival (%) at 500 µM [3]: 52%; IC50 [1]: 9.55 ± 1.7 µM; IC50 [2, 5]: 1.78 ± 1.3 µM; JC-1 red/green ratio [4]: 4.98 ± 1.77
CC(C)(C)[Si](C)(C)OC[C@H]1O[C@@H](n2ccc(=O)[nH]c2=O)[C@H](O[Si](C)(C)C(C)(C)C)[C@H]1CSCc1ccc2ccccc2c1 [Compound 11, 1-[3’-Deoxy-3’-C-(2-naphtyl)methylsulfanylmethyl-2’,5’-di-O-(tert-butyldimethylsilyl)-β-D-xylofuranosyl]-uracil]	–	5 to 25%	–
Cc1cn([C@@H]2O[C@H](CN3C[C@@H](CN4C[C@@H](COC(c5ccccc5)(c5ccccc5)c5ccccc5)O[C@@H](n5cc(C)c(=O)[nH]c5=O)C4)O[C@@H](n4ccc(=O)[nH]c4=O)C3)[C@H]3OC(C)(C)O[C@H]32)c(=O)[nH]c1=O [Compound 4]	good/excellent inhibitory effect	–	–
COC(=O)[C@H](CSC[C@@H]1[C@@H](O[Si](C)(C)C(C)(C)C)[C@H](n2ccc(=O)[nH]c2=O)O[C@@H]1CO[Si](C)(C)C(C)(C)C)NC(=O)OCC1c2ccccc2-c2ccccc21 [Compound 12, 1-[3’-Deoxy-3’-C-(N-Fmoc-cysteinemethyl ester)thiylmethyl-2’,5’-di-O-(tert-butyldimethylsilyl)-β-D-xylofuranosyl]-uracil]	good/excellent inhibitory effect	–	–
CC(=O)OC[C@H]1O[C@@H](SC[C@@H]2[C@@H](O[Si](C)(C)C(C)(C)C)[C@H](n3ccc(=O)[nH]c3=O)O[C@@H]2CO[Si](C)(C)C(C)(C)C)[C@@H](OC(C)=O)[C@@H](OC(C)=O)[C@@H]1OC(C)=O [Compound 15, 1-[3’-Deoxy-3’-C-(-2,3,4,6-tetra-O-acetyl-β-D-mannopyranosyl-sulfanylmethyl)-2’,5’-di-O-(tert-butyldimethylsilyl)-β-D-xylofuranosyl]-uracil]	more moderate growth inhibitory effect	~50%	–
CCCCCCCCCCSC[C@@H]1[C@@H](O[Si](C)(C)C(C)(C)C)[C@H](n2cc(C)c(=O)[nH]c2=O)O[C@@H]1CO[Si](C)(C)C(C)(C)C [Compound 19]	–	5 to 25%	–
CCCCSC[C@H]1[C@@H]2O[Si](C(C)C)(C(C)C)O[Si](C(C)C)(C(C)C)OC[C@H]2O[C@H]1n1ccc(=O)[nH]c1=O [Compound 20, 2’-Deoxy-2’-C-butylsulfanylmethyl-3’,5’-O-(1,1,3,3-tetraisopropyldisiloxane-1,3-diyl)-β-D-arabinofuranosyl-uracil]	good/excellent inhibitory effect	–	–
CCCSC[C@@H]1[C@@H](O[Si](C)(C)C(C)(C)C)[C@H](n2ccc(=O)[nH]c2=O)O[C@@H]1CO[Si](C)(C)C(C)(C)C [Compound 10]	–	5 to 25%	–
CC1(C)O[C@@H]2[C@H](O1)[C@H](CS[C@@H]1O[C@H](CO)[C@@H](O)[C@H](O)[C@H]1O)O[C@H]2n1cnc2c(NC(c3ccccc3)(c3ccccc3)c3ccccc3)ncnc21 [Compound 8, 1-[2’,3’-O-Isopropylidene-5’-S-(β-D-glucopyranosyl)-5’-thio-α-L-lyxofuranosyl]-N-trityl-adenine]	did not significantly affect the antimalarial activity	–	–
Nc1ncnc2c1ncn2[C@@H]1O[C@H](CN2C[C@@H](CO)O[C@@H](n3cnc4c(=O)[nH]cnc43)C2)[C@@H](O)[C@H]1O [Compound 5]	remarkable actvity	–	lysis of human RBCs (in words) (human RBCs): showed cytotoxicity towards human RBCs; also recorded: showed toxicity; IC50 [1]: 6.23 ± 1.5 µM; IC50 [2, 5]: 1.34 ± 2.1 µM
CC(=O)OC[C@H]1O[C@@H](SC[C@@H]2O[C@@H](n3cnc4c(N)ncnc43)[C@H](O)[C@@H]2O)[C@H](OC(C)=O)[C@@H](OC(C)=O)[C@@H]1OC(C)=O [Compound 9, 1-[5’-S-(2,3,4,6-Tetra-O-acetyl-β-D-glucopyranosyl)-5’-thio-α-L-lyxofuranosyl]-adenine]	significant decrease in growth inhibitiory effect	–	–
